PubChem BioAssay (NCI)
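Growth conditions: 96-well plates. Treatment: test compound, 48 hours, 5 concentrations. Analysis: linear interpolation between bracketing concentrations; unreached endpoints set to highest concentration. Definition used: TGI = concentration required for complete inhibition of growth.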

Key:
Test in all cases: NCI-60 cell line screen, 48 h
[1] = system: BT-549 breast
[2] = system: OVCAR-4 ovarian
[3] = system: SNB-75 CNS
[4] = system: CAKI-1 renal
[5] = system: UACC-257 melanoma
[6] = system: MCF7 breast
[7] = system: T-47D breast
[8] = system: MALME-3M melanoma
[9] = system: M14 melanoma
[10] = system: SK-OV-3 ovarian
[11] = system: HOP-92 NSCLC
[12] = system: MDA-MB-435
[13] = system: OVCAR-5 ovarian
[14] = system: HT29 colon
[15] = system: SNB-19 CNS
[16] = system: SF-268 CNS
[17] = system: KM12 colon
[18] = system: PC-3 prostate
[19] = system: IGROV1 ovarian
[20] = system: SN12C renal
[21] = system: RPMI-8226 leukemia
[22] = system: NCI-H226 lung
[23] = system: TK-10 renal
[24] = system: MOLT-4 leukemia
[25] = system: SK-MEL-28 melanoma
[26] = system: A549 NSCLC
[27] = system: NCI-H460 lung
[28] = system: UO-31 renal
[29] = system: SF-539 CNS
[30] = system: LOX IMVI melanoma
[31] = system: HOP-62 NSCLC
[32] = system: SK-MEL-2 melanoma
[33] = system: RXF 393 renal
[34] = system: SK-MEL-5 melanoma
[35] = system: K-562 leukemia
[36] = system: SR leukemia
[37] = system: HL-60(TB) leukemia
[38] = system: NCI/ADR-RES ovarian
[39] = system: NCI-H522 lung
[40] = system: UACC-62 melanoma
[41] = system: U251 CNS
[42] = system: OVCAR-8 ovarian
[43] = system: 786-0 renal
[44] = system: EKVX NSCLC
[45] = system: SF-295 CNS
[46] = system: HCT-15 colon
[47] = system: NCI-H23 lung
[48] = system: MDA-N
[49] = system: COLO 205 colon
[50] = system: HCT-116 colon
[51] = system: HCC-2998 colon
[52] = system: MDA-MB-231 breast
[53] = system: ACHN renal
[54] = system: SW-620 colon
[55] = system: HS 578T breast
[56] = system: CCRF-CEM leukemia
[57] = system: DU-145 prostate
[58] = system: OVCAR-3 ovarian
[59] = system: A498 renal

Q: With `COc1ccc2c(c1)N=C1CSC(c3cc([N+](=O)[O-])ccc3Cl)N1C2` (stereo unspecified) as the compound, how does the TGI [1] read?
A: 80.7 µM

Q: What about the TGI [2] of the same compound?
A: > 100 µM

Q: And the TGI [3]?
A: 47.5 µM

Q: And the TGI [4]?
A: 66.8 µM

Q: And the TGI [5]?
A: 37.9 µM

Q: And the TGI [6]?
A: 42.6 µM

Q: What about the TGI [7] of the same compound?
A: > 100 µM

Q: And the TGI [8]?
A: 60.4 µM

Q: And the TGI [9]?
A: 86.8 µM

Q: What about the TGI [10] of the same compound?
A: 65.1 µM

Q: And the TGI [11]?
A: 71.5 µM

Q: And the TGI [12]?
A: 47.6 µM

Q: What about the TGI [13] of the same compound?
A: 68.2 µM

Q: And the TGI [14]?
A: 68.4 µM

Q: And the TGI [15]?
A: > 100 µM

Q: And the TGI [16]?
A: > 100 µM

Q: And the TGI [17]?
A: 46.3 µM

Q: And the TGI [18]?
A: 59.3 µM

Q: And the TGI [19]?
A: > 100 µM

Q: And the TGI [20]?
A: 89.6 µM

Q: And the TGI [21]?
A: 57.6 µM

Q: And the TGI [22]?
A: > 100 µM

Q: And the TGI [23]?
A: 55.4 µM

Q: What about the TGI [24] of the same compound?
A: 77.8 µM

Q: And the TGI [25]?
A: 83.7 µM

Q: And the TGI [26]?
A: > 100 µM

Q: What about the TGI [27] of the same compound?
A: 45.4 µM

Q: What about the TGI [28] of the same compound?
A: 57.9 µM

Q: What about the TGI [29] of the same compound?
A: 71.2 µM

Q: And the TGI [30]?
A: > 100 µM

Q: What about the TGI [31] of the same compound?
A: 97.2 µM

Q: And the TGI [32]?
A: 51.1 µM

Q: And the TGI [33]?
A: 82 µM

Q: And the TGI [34]?
A: > 100 µM

Q: And the TGI [35]?
A: > 100 µM

Q: What about the TGI [36] of the same compound?
A: 70.1 µM

Q: What about the TGI [37] of the same compound?
A: 55.7 µM

Q: And the TGI [38]?
A: 74.1 µM

Q: And the TGI [39]?
A: 57 µM

Q: What about the TGI [40] of the same compound?
A: 42.1 µM

Q: What about the TGI [41] of the same compound?
A: 71.2 µM

Q: What about the TGI [42] of the same compound?
A: > 100 µM

Q: And the TGI [43]?
A: 89.3 µM

Q: What about the TGI [44] of the same compound?
A: 47.1 µM

Q: And the TGI [45]?
A: > 100 µM

Q: What about the TGI [46] of the same compound?
A: 96.4 µM

Q: And the TGI [47]?
A: 62.4 µM

Q: And the TGI [48]?
A: > 100 µM

Q: And the TGI [49]?
A: 79.6 µM

Q: And the TGI [50]?
A: 47.4 µM

Q: And the TGI [51]?
A: 33 µM

Q: What about the TGI [52] of the same compound?
A: 50 µM

Q: What about the TGI [53] of the same compound?
A: 54.1 µM

Q: What about the TGI [54] of the same compound?
A: > 100 µM

Q: What about the TGI [55] of the same compound?
A: > 100 µM

Q: For `O=C(c1cccnc1)N1N=C(c2ccc(Cl)cc2)CC1(O)c1cc(F)c(Cl)cc1Cl` (stereo unspecified), which TGI [1] is on record?
A: 69.1 µM

Q: What about the TGI [2] of the same compound?
A: > 100 µM

Q: What about the TGI [3] of the same compound?
A: 37.3 µM

Q: What about the TGI [4] of the same compound?
A: > 100 µM

Q: And the TGI [5]?
A: 63.7 µM

Q: What about the TGI [7] of the same compound?
A: 20.7 µM

Q: And the TGI [8]?
A: > 100 µM

Q: And the TGI [9]?
A: 91.9 µM

Q: What about the TGI [10] of the same compound?
A: > 100 µM

Q: And the TGI [11]?
A: 59.8 µM

Q: And the TGI [12]?
A: > 100 µM

Q: What about the TGI [13] of the same compound?
A: > 100 µM

Q: And the TGI [14]?
A: 75.8 µM

Q: What about the TGI [15] of the same compound?
A: > 100 µM

Q: What about the TGI [16] of the same compound?
A: 75 µM

Q: And the TGI [17]?
A: > 100 µM

Q: What about the TGI [18] of the same compound?
A: 43.4 µM

Q: And the TGI [19]?
A: 82.1 µM

Q: And the TGI [20]?
A: 37.5 µM

Q: What about the TGI [21] of the same compound?
A: 47.6 µM

Q: And the TGI [22]?
A: 43.3 µM

Q: What about the TGI [23] of the same compound?
A: > 100 µM

Q: And the TGI [24]?
A: > 100 µM

Q: And the TGI [25]?
A: 91.7 µM

Q: What about the TGI [26] of the same compound?
A: > 100 µM

Q: And the TGI [56]?
A: > 100 µM

Q: And the TGI [27]?
A: > 100 µM

Q: And the TGI [28]?
A: > 100 µM

Q: What about the TGI [57] of the same compound?
A: > 100 µM

Q: And the TGI [29]?
A: 28.1 µM

Q: What about the TGI [30] of the same compound?
A: 31.2 µM

Q: And the TGI [31]?
A: 91.3 µM

Q: What about the TGI [32] of the same compound?
A: 75.2 µM

Q: And the TGI [33]?
A: 26.7 µM

Q: And the TGI [34]?
A: 24.2 µM

Q: What about the TGI [35] of the same compound?
A: > 100 µM

Q: What about the TGI [36] of the same compound?
A: > 100 µM

Q: What about the TGI [37] of the same compound?
A: 47.9 µM

Q: And the TGI [38]?
A: > 100 µM

Q: And the TGI [39]?
A: 92.1 µM

Q: And the TGI [41]?
A: 34.3 µM

Q: And the TGI [42]?
A: > 100 µM

Q: What about the TGI [43] of the same compound?
A: 53.8 µM

Q: What about the TGI [44] of the same compound?
A: 76.5 µM

Q: What about the TGI [58] of the same compound?
A: 26.9 µM

Q: What about the TGI [45] of the same compound?
A: 56.1 µM

Q: And the TGI [46]?
A: > 100 µM

Q: And the TGI [47]?
A: > 100 µM

Q: And the TGI [48]?
A: > 100 µM

Q: And the TGI [49]?
A: 28.7 µM

Q: And the TGI [50]?
A: 52.8 µM

Q: What about the TGI [52] of the same compound?
A: 38.9 µM

Q: What about the TGI [53] of the same compound?
A: 53.8 µM

Q: And the TGI [54]?
A: > 100 µM

Q: What about the TGI [55] of the same compound?
A: > 100 µM

Q: Which results are given for `CC(=O)N[C@H]1CCCC[C@@H]1OC(C)=O`?
A: TGI [1]: > 100 µM; TGI [2]: > 100 µM; TGI [3]: > 100 µM; TGI [4]: > 100 µM; TGI [5]: > 100 µM; TGI [6]: > 100 µM; TGI [7]: > 100 µM; TGI [8]: > 100 µM; TGI [10]: > 100 µM; TGI [11]: > 100 µM; TGI [12]: > 100 µM; TGI [13]: > 100 µM; TGI [14]: > 100 µM; TGI [17]: > 100 µM; TGI [18]: > 100 µM; TGI [19]: > 100 µM; TGI [20]: > 100 µM; TGI [21]: > 100 µM; TGI [22]: > 100 µM; TGI [23]: > 100 µM; TGI [24]: > 100 µM; TGI [25]: > 100 µM; TGI [27]: > 100 µM; TGI [57]: > 100 µM; TGI [30]: > 100 µM; TGI [31]: > 100 µM; TGI [32]: > 100 µM; TGI [33]: > 100 µM; TGI [34]: > 100 µM; TGI [35]: > 100 µM; TGI [37]: > 100 µM; TGI [59]: > 100 µM; TGI [38]: > 100 µM; TGI [39]: > 100 µM; TGI [40]: > 100 µM; TGI [41]: > 100 µM; TGI [42]: > 100 µM; TGI [43]: > 100 µM; TGI [44]: > 100 µM; TGI [58]: > 100 µM; TGI [45]: > 100 µM; TGI [46]: > 100 µM; TGI [47]: > 100 µM; TGI [48]: > 100 µM; TGI [49]: > 100 µM; TGI [50]: > 100 µM; TGI [51]: > 100 µM; TGI [52]: > 100 µM; TGI [53]: > 100 µM; TGI [54]: > 100 µM; TGI [55]: > 100 µM
